Data from the NIST ThermoML archive (doi:10.1021/acs.jced.7b00020).
Numbers after ± are expanded uncertainties.

Test: wn = mass fraction of the nth substance listed
Conditions: 100 kPa, Liquid, Pycnometric method

Row | mass density (288.15 K, w1 = 0.1686) | mass density (318.15 K, w1 = 0.2685) | mass density (288.15 K, w1 = 0.436) | mass density (318.15 K, w1 = 0.5992) | Structure (SMILES)
1 | 1126.4 ± 2.6 kg/m3 | 1204.6 ± 2.8 kg/m3 | – | – | O=P([O-])(O)O.[K+] [monopotassium phosphate] + O
2 | – | – | 1388.4 ± 3.4 kg/m3 | 1573.3 ± 3.8 kg/m3 | O=P([O-])(O)O.[Na+] [sodium dihydrogen phosphate] + O
